The text below walks through data of patent US20110039762A1, “TARGETED ANTIMICROBIAL MOIETIES” (C3 JIAN, INC., priority 2009, published 2011).

Entries after “also recorded” stand apart in the source; their conditions may differ. Ends that are not written are not given here.

The subject of test [1] is microorganisms. Put plainly: Peptides having multiple activities (targeting/binding, antimicrobial, growth or phenotype altering). The text has this: In certain embodiments, peptides described herein can have multiple activities. Thus for example, a peptide can have both binding/targeting activity and antimicrobial activity. Such peptides can be used, e.g., in a chimeric construct, for any or all of these properties. Thus, for example, a peptide designated “B” in Table 8 can be used as a targeting peptide. If it is also designated G or M it can also be used for antimicrobial activity.

The test system of test [2] is microorganisms (e.g., bacteria, yeasts, fungi). Put plainly: Targeting peptide binding to target microorganisms (Table 3). The note with it: preferably 1x PBS; for Target(s): microorganism(s) the targeting peptide binds, peptide binding conducted in aqueous buffers varied by peptide solubility; for Target(s) (microorganisms bound by the targeting peptide): peptide binding in aqueous buffers varied by peptide solubility.

For test [3], the system named is S. pneumoniae. Put plainly: Kill or inhibit growth/proliferation; morphology, biofilm and growth disruption (Tables 5, 6). Further: test concentration or dose not given here. In kind it is cell-based, Streptococcus pneumoniae. More on the design: key: A: Peptide aggregates; B: Less hyphal formation; Clumps; Diffuse clumps and small polyps; F: Diffuse growth; H: Thin; I: Growth inhibition; Microcolony formation; Rippled; Small polyps; Thick; W: Halo formation on top, microlonies on bottom.

Regarding “PF-513: peptide having multiple activities (chain 1 SNGVGLGVGIGSGIRF-NH2; chain 2 SNGVGLGVGIGSGIRF-NH2)”, the Activities result in test [1] is “G B”. The “Target(s)” value in test [2] is “C. albicans”. Also, the “Organism, effect” value in test [3] is “S. pneumoniae (M)”.

As to “PF-459: peptide having multiple activities (chain 1 EKRMSFNENQSHRPLL; chain 2 EKRMSFNENQSHRPLL; Peptide with targeting and/or antimicrobial activity)”, the Activities result in test [1] is “G B”. In addition, the “Target(s)” value in test [2] was “P. aeruginosa”. In test [3], the “Organism, effect” value was “S. pneumoniae (H)”.

In the case of “PF-462: peptide having multiple activities (chain 1 KNKTDTL; chain 2 KNKTDTL; Peptide with targeting and/or antimicrobial activity)”, the Activities result in test [1] was “G B”. In test [2], the “Target(s)” value is recorded as “E. faecalis; also recorded: C. jeikeium”. Also, the “Organism, effect” value in test [3] is listed as “S. pneumoniae (H)”.

As to “PF-625: peptide having multiple activities (SDSTNNARTRKKARDVTTKDIDK; Peptide with targeting and/or antimicrobial activity)”, the Activities result in test [1] is given as “G B”. The “Target(s) (microorganisms bound by the targeting peptide)” value in test [2] is listed as “S. epidermidis; also recorded: M. luteus; also recorded: S. pneumoniae; also recorded: C. jeikeium”. Further, the “Organism, effect” value in test [3] is given as “S. pneumoniae (H)”.

In the case of “PF-573: peptide having multiple activities (chain 1 EKKLIVKLIDSIGKSHEEIVGAG; chain 2 EKKLIVKLIDSIGKSHEEIVGAG; Peptide with targeting and/or antimicrobial activity)”, the Activities entry in test [1] was “G B”. In addition, the “Target(s)” value in test [2] was “S. epidermidis; also recorded: S. pneumoniae”. For the same substance, the “Organism, effect” value in test [3] is “S. pneumoniae (C)”.

Regarding “PF-515: peptide having multiple activities (chain 1 DKSTQDKDIKQAKLLAQELGL-NH2; chain 2 DKSTQDKDIKQAKLLAQELGL-NH2)”, in test [1], the Activities entry is reported as “G B”. In addition, in test [2], the “Target(s)” value is recorded as “S. epidermidis; also recorded: C. albicans; also recorded: S. pneumoniae; also recorded: C. jeikeium”. In addition, in test [3], the “Organism, effect” value was “S. pneumoniae (H)”.

Consider “PF-414: peptide having multiple activities (LLNKKLE; Peptide with targeting and/or antimicrobial activity)”, for which the Activities result in test [1] was “G B”. Also, the “Target(s)” value in test [2] is given as “E. coli; also recorded: C. albicans; also recorded: C. jeikeium”. The “Organism, effect” value in test [3] is “S. pneumoniae (H)”.

“PF-476: peptide having multiple activities (chain 1 WADAQYKLCENCSE; chain 2 WADAQYKLCENCSE; Peptide with targeting and/or antimicrobial activity)”: the Activities result in test [1] is “G B”. In addition, the “Target(s)” value in test [2] was “M. luteus; also recorded: P. mirabilis; also recorded: C. albicans; also recorded: S. pneumoniae; also recorded: E. faecalis; also recorded: C. jeikeium; also recorded: C. jejuni”. Further, the “Organism, effect” value in test [3] is given as “S. pneumoniae (H)”.

For “PF-457: peptide having multiple activities (chain 1 INKYHHIA; chain 2 INKYHHIA; Peptide with targeting and/or antimicrobial activity)”, the Activities result in test [1] is on record as “G B”. The “Target(s)” value in test [2] is recorded as “C. albicans; also recorded: S. pneumoniae; also recorded: E. faecalis; also recorded: C. jeikeium”. In addition, in test [3], the “Organism, effect” value is on record as “S. pneumoniae (M)”.

For the substance “PF-757: peptide having multiple activities (PQAISSVQQNA; Peptide with targeting and/or antimicrobial activity)”, the Activities entry in test [1] is given as “G B”. Besides, the “Target(s) (microorganisms bound by the targeting peptide)” value in test [2] is “M. luteus and C. albicans and MRSA”. Moreover, in test [3], the “Organism, effect (morphology, biofilm and growth disruption)” value is reported as “S. pneumoniae (H)”.

Regarding HKNKLNIPHIKS [PF-477], the Activities entry in test [1] was “G B”. Besides, in test [2], the “Target(s)” value was “S. epidermidis; also recorded: M. luteus; also recorded: C. albicans; also recorded: S. pneumoniae; also recorded: C. jeikeium; also recorded: C. jejuni”. Moreover, the “Organism, effect” value in test [3] is reported as “S. pneumoniae (H)”.

As for “PF-626: peptide having multiple activities (KYDFDDFEPEEA; Peptide with targeting and/or antimicrobial activity)”, the Activities entry in test [1] is given as “G B”. For the same substance, in test [2], the “Target(s) (microorganisms bound by the targeting peptide)” value is “S. epidermidis and M. luteus and E. coli and C. albicans and MRSA and S. pneumoniae and E. faecalis and C. jeikeium”. For the same substance, the “Organism, effect” value in test [3] is on record as “S. pneumoniae (H)”.

On to “PF-434: peptide having multiple activities (GQLLADKRPARDYNRK; Peptide with targeting and/or antimicrobial activity)”, for which the Activities result in test [1] is on record as “G B”. Moreover, in test [2], the “Target(s)” value is reported as “S. epidermidis; also recorded: M. luteus; also recorded: S. pneumoniae; also recorded: C. jeikeium”. The “Organism, effect” value in test [3] is on record as “S. pneumoniae (S)”.

On to LHVIRPRPELSELKFPITKILKVNKQGLKK [PF-752], for which the Activities result in test [1] is reported as “G B”. Moreover, the “Target(s) (microorganisms bound by the targeting peptide)” value in test [2] was “S. epidermidis and E. coli and MRSA and S. pneumoniae and E. faecalis”. The “Organism, effect (morphology, biofilm and growth disruption)” value in test [3] is given as “S. pneumoniae (C)”.

With “PF-542: peptide having multiple activities (chain 1 KKDNPSLNDQDKNAVLNLLALAK; chain 2 KKDNPSLNDQDKNAVLNLLALAK; Peptide with targeting and/or antimicrobial activity)”, the Activities entry in test [1] is “G B”. Also, the “Target(s)” value in test [2] is reported as “C. jeikeium”. Further, in test [3], the “Organism, effect” value is “S. pneumoniae (H)”.

On to “PF-517: peptide having multiple activities (chain 1 VKPTMTASLISTVC; chain 2 VKPTMTASLISTVC; Peptide with targeting and/or antimicrobial activity)”, for which the Activities entry in test [1] was “G B”. In test [2], the “Target(s)” value is given as “C. jejuni”. In addition, the “Organism, effect” value in test [3] is given as “S. pneumoniae (M)”.

For the substance “PF-428: peptide having multiple activities (ENEESIF; Peptide with targeting and/or antimicrobial activity)”, in test [1], the Activities result was “G B”. For the same substance, the “Target(s)” value in test [2] was “S. epidermidis; also recorded: C. albicans; also recorded: E. faecalis; also recorded: C. jeikeium”. Besides, the “Organism, effect” value in test [3] was “S. pneumoniae (H)”.

As to “PF-479: peptide having multiple activities (chain 1 AYILKRREEKNK; chain 2 AYILKRREEKNK; Peptide with targeting and/or antimicrobial activity)”, the Activities result in test [1] was “G B”. The “Organism, effect” value in test [3] was “S. pneumoniae (C)”.

For the substance “PF-482: peptide having multiple activities (chain 1 LVGYVRTSGTVRSYKIN; chain 2 LVGYVRTSGTVRSYKIN; Peptide with targeting and/or antimicrobial activity)”, the Activities entry in test [1] was “G B”. For the same substance, the “Organism, effect” value in test [3] is listed as “S. pneumoniae (S)”.
